According to patent US9624167B2, “N-(4-hydroxy-4-methyl-cyclohexyl)-4-phenyl-benzenesulfonamides and N-(4-hydroxy-4-methyl-cyclohexyl)-4-(2-pyridyl)benzenesulfonamides and their therapeutic use” (PIMCO 2664 LIMITED, priority 2013, dated 2017):
Where two headings read alike, the source gives them in different places.

How the values were obtained:
[1] = Rodent pharmacokinetics study; format: in vivo, Sprague-Dawley rats; details: rat; for p.o. AUC: dosed at 10 mg/kg orally (‡)
hERG = target: T1, hERG (Homo sapiens, UniProt Q12809); test: hERG Ion Channel Assay (Q-patch, hERG-CHO cells); format: cell-based; details: human, CHO cells stably transfected with hERG (hERG-CHO), pH 7.4, 30 μM
T1 construct: expressed in transfected cells; host or cells: Chinese Hamster Ovary cells (hERG-CHO), stably transfected
T1 sequence (Q12809 whole entry): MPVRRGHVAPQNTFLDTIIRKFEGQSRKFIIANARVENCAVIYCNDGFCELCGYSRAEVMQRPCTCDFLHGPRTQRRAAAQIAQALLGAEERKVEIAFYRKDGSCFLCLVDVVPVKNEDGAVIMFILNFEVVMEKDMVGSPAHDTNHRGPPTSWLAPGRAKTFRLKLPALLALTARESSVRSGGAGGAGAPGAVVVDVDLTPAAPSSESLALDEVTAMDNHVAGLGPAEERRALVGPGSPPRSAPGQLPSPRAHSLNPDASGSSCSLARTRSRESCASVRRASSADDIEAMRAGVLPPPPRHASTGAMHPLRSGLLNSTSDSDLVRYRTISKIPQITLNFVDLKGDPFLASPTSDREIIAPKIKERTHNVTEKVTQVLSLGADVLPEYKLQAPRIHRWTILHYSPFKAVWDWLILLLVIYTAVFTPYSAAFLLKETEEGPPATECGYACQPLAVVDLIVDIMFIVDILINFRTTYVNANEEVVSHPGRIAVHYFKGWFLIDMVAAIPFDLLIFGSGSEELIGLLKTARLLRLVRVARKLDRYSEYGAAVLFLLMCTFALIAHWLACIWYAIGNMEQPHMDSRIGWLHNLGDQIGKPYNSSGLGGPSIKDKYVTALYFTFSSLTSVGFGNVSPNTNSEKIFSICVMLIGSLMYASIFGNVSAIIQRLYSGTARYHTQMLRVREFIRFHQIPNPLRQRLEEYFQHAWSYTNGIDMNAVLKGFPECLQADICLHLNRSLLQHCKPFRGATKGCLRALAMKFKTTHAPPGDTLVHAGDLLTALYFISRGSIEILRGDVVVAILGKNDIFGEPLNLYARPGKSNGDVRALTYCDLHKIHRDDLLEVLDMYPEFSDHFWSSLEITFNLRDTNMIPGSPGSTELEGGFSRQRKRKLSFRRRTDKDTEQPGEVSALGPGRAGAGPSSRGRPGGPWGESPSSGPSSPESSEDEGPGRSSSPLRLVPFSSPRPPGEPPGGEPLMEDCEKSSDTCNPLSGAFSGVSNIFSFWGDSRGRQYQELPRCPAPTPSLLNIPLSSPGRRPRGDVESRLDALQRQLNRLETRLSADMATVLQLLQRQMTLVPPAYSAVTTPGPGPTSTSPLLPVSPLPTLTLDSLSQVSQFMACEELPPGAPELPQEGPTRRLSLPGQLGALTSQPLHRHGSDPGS
Experimental: The activity of the compounds against the hERG ion channel was tested. The assay was conducted using the automated path-clamp, Q-patch method using stably transfected Chinese Hamster Ovary cells (hERG-CHO). hERG-CHO cells were cultured in F-12 Kaighn's Nutrient Mixture medium (Invitrogen)+10% FBS at 37° C. for 1-3 days. Cells were kept at 30° C. for 24 to 48 hours prior to patch clamping in order to increase the hERG current amplitude. Subsequently, the cells were harvested by trypsinisation, and kept in Serum Free Medium (SFM) in the Q-patch cell preparation state for up to 6 hours at room temperature before being washed and re-suspended in extracellular solution and applied to the patch clamp sites for data recording.
Patch-clamp voltage protocol: After whole cell configuration was achieved, the cell was held at −80 mV. A 50 millisecond pulse to −40 mV was delivered to measure the leaking current, which was subtracted from the tail current on-line. Then the cell was depolarized to +20 mV for 2 seconds, followed by a one second pulse to −40 mV to reveal hERG tail current. This paradigm was delivered once every 5 seconds to monitor the current amplitude.
Extracellular solution: 137 mM NaCl, 4 mM KCl, 1.8 mM CaCl2, 1 mM MgCl2, 10 mM D(+)-glucose, 10 mM HePES buffer (pH adjusted to 7.4 with NaOH).
After the whole cell configuration was achieved, the extracellular solution (control) was applied first and the cell was stabilized for 2 minutes in extracellular solution. The test compound was then applied from low concentrations to high concentrations cumulatively. The cell was incubated with each test concentration for 5 minutes. During each incubation, the cell was repetitively stimulated using the voltage protocol described above, and the tail current amplitude was continuously monitored.
• (1) Peak tail current >100 pA in control. • (2) Initial run-down <30% and the run-down stops before first application of the test compound. • (3) Leak currents <50% of the control peak tail currents at any time. • (4) rs<20 MΩ throughout the experiment.
The degree of inhibition (%) was obtained by measuring the tail current amplitude, induced by a one second test pulse to −40 mV after a two second pulse to +20 mV, before and after incubation with the test compound. The difference in current was normalized to control and multiplied by 100 in order to obtain the percent inhibition.
Concentration (log) response curves were fitted to a logistic equation (three parameters assuming complete block of the current at very high test compound concentrations) to generate estimates of the 50% inhibitory concentration (IC50). The concentration-response relationship of each compound was constructed from the percentage reductions of current amplitude by sequential concentrations.

[2] = Human Liver Microsomal Stability; format: in vitro ADME; details: both sexes, pooled liver microsomes, 1 μM compound
Experimental: Metabolic stability was measured by determining the rate of disappearance of compound in the presence of human liver microsomal preparations, as quantified by liquid chromatography mass-spectrometry and […] mass-spectrometry (LC-MS/MS).
Metabolic stability of test compounds was measured by determination of the rate of disappearance of the compound when incubated in the presence of human liver microsomes. Liver microsomes are prepared from the endoplasmic reticulum of hepatocytes and are the primary source of the most important enzymes (cytochrome P450s) involved in drug metabolism. Study of drug stability in the presence of liver microsomes is accepted as a valuable model permitting rapid prediction of in vivo drug stability.
Human liver microsomes were obtained from a commercial source. Test compounds (1 μM) were incubated with pooled liver microsomes (male and female). Samples were incubated for a 60 minute period and removed at up to 6 time points and analysed by LC-MS/MS for the presence/amount of test compounds.
Microsomes (final protein concentration 0.25 or 0.5 mg/mL), 0.1 M phosphate buffer pH 7.4, and test compound (final concentration 1 μM; diluted from 10 mM stock solution to give a final DMSO concentration of 0.1%) were incubated at 37° C. prior to the addition of Nicotinamide adenine dinucleotide phosphate (NADPH, final concentration 1 mM) to initiate the reaction. The final incubation volume was 100 μL. A control incubation was included for each compound tested, where 0.1 M phosphate buffer pH 7.4 was added instead of NADPH. […]
Each compound was incubated for 0, 5, 15, 30, 45 or 60 minutes. The reactions were stopped by the addition of 100 μL ice-cold acetonitrile containing internal standard (0.001 mM glipizide) at the appropriate time points. The incubation plates were centrifuged at 4000 rpm for 15 minutes at 4° C. to precipitate the protein and 0.1 mL aliquots were analysed using LC-MS/MS, with the conditions shown in the following table.
From a plot of the natural logarithm of the peak area ratio (i.e., the ratio of compound peak area:internal standard peak area) against time, the gradient of the line was determined.

[3] = tested on: collagen-induced arthritis; test: Mouse Collagen-Induced Arthritis; format: in vivo, DBA/1j mice; details: 10 mg/kg/day oral gavage, once daily for 14 days, arthritic index vs control
Experimental: Seven- to eight-week-old male DBA/1j mice were used for all procedures. Animals were housed in groups of 10, and were maintained at 21° C.±2° C. on a 12-hour light/dark cycle with food and water ad libitum. […]. All mice were immunised subcutaneously with 200 μg of bovine type II collagen in CFA. 21 days later, all mice were immunised subcutaneously with 100 μg of bovine type II collagen in IFA.
The mice started to develop signs and symptoms of arthritis following the ‘booster’ immunisation.
For macroscopic assessment of arthritis, the following signs were monitored in each paw of each mouse three times per week and summed to generate the Arthritic Index (AI) (the maximum AI for one animal is 16): • 0=no visible effects of arthritis. • 1=oedema and/or erythema of 1 digit. • 2=oedema and/or erythema of 2 digits. • 3=oedema and/or erythema of more than 2 digits. • 4=severe arthritis of entire paw and digits.
Animals were sorted into treatment groups with a mean arthritic index of 2.5 and then dosed once daily for 14 days with compound by oral gavage for test compounds, or by subcutaneous injection at a dose of 10 mg/kg for the positive control, etanercept. After completion of the experiment, the mice were sacrificed.
The data were analysed by generating an average of the arthritic index across each treatment group. The mean arthritic index was then compared to the arthritic index of control (untreated) animals using the following formula to generate a percentage inhibition of disease.

[4] = pH 7.4, human liver microsomes 0.25 mg/mL protein, 5 time points 0-60 min, one replicate, read-out: T1/2 (1)

Q: For `Cc1cc(S(=O)(=O)N[C@H]2CC[C@H](O)CC2)ccc1-c1ccc(F)cc1F` [ABD735], which “p.o. AUC” value [1] is on record?
A: 8965 ng·min/mL

Q: And the inhibition at 5 min, 30 µM (hERG; hERG tail current)?
A: 62.5%

Q: And the half-life at 1 μM [2, 4]?
A: 8.73 h

Q: What about the “% inhibition of disease” value [3] of the same compound?
A: 44%

Q: With `C[C@]1(O)CC[C@@H](NS(=O)(=O)c2ccc(-c3ccc(F)cc3F)cc2)CC1` [ABD899, reference compound] as the compound, how does the “p.o. AUC” value [1] read?
A: 10740 ng·min/mL

Q: And the inhibition at 5 min, 30 µM (hERG; a lab-scale batch was tested)?
A: 100%

Q: What about the inhibition at 5 min, 30 µM (hERG; a mid-scale batch was tested) of the same compound?
A: 53%

Q: What about the half-life at 1 μM [2, 4] of the same compound?
A: 1.2 h

Q: And the half-life at 1 μM ([2]; pH 7.4, human liver microsomes 0.5 mg/mL protein, 6 time points 0-60 min, two replicates, read-out: T1/2 (2))?
A: 1.75 h

Q: What about the “% inhibition of disease” value [3] of the same compound?
A: 77%

Q: Which “i.v. AUC” value ([1]; dosed at 2 mg/kg intravenously (†)) does the source give for `C[C@]1(O)CC[C@H](NS(=O)(=O)c2ccc(-c3ncc(F)cc3F)cc2)CC1` [HMC-N-02-A, 4-(3,5-Difluoropyridin-2-yl)-N-((1r,4r)-4-hydroxy-4-methylcyclohexyl)benzenesulfonamide] here?
A: 3053 ng·min/mL

Q: And the inhibition at 5 min, 30 µM (hERG; hERG tail current)?
A: 31%

Q: What about the half-life at 1 μM [2, 4] of the same compound?
A: 6.12 h

Q: What about the “% inhibition of disease” value [3] of the same compound?
A: 36%
